# Reference: ChEMBL document CHEMBL2169741, “Analysis of the discriminative inhibition of mammalian digestive lipases by 3-phenyl substituted 1,3,4-oxadiazol-2(3H)-ones” (Eur J Med Chem, 2012)
# Activity calls are given as the source filed them. The rule behind the calls is not given here.
# What was measured:
# Sus scrofa = organism: Sus scrofa; assay: Inhibition of porcine Pancrelipase at 400 molar excess after 30 mins
# [1] = molecular target: T1, Bile salt-activated lipase (Homo sapiens) (UniProt P19835); assay: Inhibition of human pancreatic CEH at 20 molar excess after 30 mins
# T1 sequence (whole entry): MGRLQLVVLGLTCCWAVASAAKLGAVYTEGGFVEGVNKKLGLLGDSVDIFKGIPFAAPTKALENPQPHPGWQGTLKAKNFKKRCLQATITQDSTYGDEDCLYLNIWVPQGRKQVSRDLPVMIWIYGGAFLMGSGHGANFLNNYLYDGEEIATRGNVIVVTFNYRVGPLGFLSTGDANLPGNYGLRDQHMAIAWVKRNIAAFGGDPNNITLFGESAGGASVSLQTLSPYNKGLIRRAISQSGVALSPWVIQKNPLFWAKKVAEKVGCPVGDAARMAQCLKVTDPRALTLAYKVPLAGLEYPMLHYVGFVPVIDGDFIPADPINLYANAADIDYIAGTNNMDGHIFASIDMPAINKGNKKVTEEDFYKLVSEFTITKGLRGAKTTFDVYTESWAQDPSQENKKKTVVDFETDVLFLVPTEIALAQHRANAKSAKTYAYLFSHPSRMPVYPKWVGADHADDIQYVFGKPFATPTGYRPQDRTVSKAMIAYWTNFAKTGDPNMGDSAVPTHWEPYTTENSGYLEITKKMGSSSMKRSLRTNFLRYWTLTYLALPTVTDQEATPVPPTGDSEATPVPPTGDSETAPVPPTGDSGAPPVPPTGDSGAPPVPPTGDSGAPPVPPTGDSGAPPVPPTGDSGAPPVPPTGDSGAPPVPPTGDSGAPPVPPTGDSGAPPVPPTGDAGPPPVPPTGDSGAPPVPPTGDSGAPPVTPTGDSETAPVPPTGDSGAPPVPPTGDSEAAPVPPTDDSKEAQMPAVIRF
# [2] = molecular target: T1, Bile salt-activated lipase (Homo sapiens); assay: Inhibition of human pancreatic CEH at 2 molar excess after 30 mins
# [3] = molecular target: T2, Gastric triacylglycerol lipase (Canis lupus familiaris) (UniProt P80035); assay: Inhibition of recombinant DGL expressed in transgenic maize at 20 molar excess after 30 mins in presence of NaTDC
# T2 sequence (whole entry): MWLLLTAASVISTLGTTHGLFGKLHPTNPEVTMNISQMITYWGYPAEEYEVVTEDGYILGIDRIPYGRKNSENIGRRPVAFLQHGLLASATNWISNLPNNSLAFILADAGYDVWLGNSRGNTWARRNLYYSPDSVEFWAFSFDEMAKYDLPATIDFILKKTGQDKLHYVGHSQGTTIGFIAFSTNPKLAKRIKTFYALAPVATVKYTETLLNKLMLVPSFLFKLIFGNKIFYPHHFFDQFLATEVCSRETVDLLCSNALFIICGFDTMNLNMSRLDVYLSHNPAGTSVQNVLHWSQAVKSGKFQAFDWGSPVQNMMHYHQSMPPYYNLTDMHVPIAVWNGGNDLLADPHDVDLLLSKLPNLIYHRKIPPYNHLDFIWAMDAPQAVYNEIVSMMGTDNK
# [4] = molecular target: T2, Gastric triacylglycerol lipase (Canis lupus familiaris); assay: Inhibition of recombinant DGL expressed in transgenic maize at 2 molar excess after 30 mins in presence of NaTDC
# [5] = molecular target: T3, Pancreatic lipase-related protein 2 (Cavia porcellus) (UniProt P81139); assay: Inhibition of recombinant GPLRP2 expressed in Aspergillus oryzae at 20 molar excess after 30 mins in presence of NaTDC
# T3 sequence (whole entry): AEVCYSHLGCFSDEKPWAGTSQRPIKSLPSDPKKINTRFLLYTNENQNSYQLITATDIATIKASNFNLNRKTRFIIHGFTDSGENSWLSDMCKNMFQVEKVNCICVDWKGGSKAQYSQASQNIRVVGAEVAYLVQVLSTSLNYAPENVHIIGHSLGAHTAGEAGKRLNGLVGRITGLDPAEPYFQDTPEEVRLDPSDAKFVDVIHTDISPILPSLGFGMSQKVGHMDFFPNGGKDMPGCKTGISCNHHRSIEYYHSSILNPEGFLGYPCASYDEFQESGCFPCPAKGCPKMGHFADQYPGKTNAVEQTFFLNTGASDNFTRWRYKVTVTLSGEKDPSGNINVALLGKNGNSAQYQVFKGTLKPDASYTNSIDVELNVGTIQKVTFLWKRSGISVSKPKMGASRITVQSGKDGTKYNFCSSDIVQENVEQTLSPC
# [6] = molecular target: T3, Pancreatic lipase-related protein 2 (Cavia porcellus); assay: Inhibition of recombinant GPLRP2 expressed in Aspergillus oryzae at 2 molar excess after 30 mins in presence of NaTDC
# [7] = molecular target: T4, Pancreatic lipase-related protein 2 (Homo sapiens) (UniProt P54317); assay: Inhibition of recombinant HPLRP2 expressed in Pichia pastoris at 20 molar excess after 30 mins in presence of NaTDC
# T4 sequence (whole entry): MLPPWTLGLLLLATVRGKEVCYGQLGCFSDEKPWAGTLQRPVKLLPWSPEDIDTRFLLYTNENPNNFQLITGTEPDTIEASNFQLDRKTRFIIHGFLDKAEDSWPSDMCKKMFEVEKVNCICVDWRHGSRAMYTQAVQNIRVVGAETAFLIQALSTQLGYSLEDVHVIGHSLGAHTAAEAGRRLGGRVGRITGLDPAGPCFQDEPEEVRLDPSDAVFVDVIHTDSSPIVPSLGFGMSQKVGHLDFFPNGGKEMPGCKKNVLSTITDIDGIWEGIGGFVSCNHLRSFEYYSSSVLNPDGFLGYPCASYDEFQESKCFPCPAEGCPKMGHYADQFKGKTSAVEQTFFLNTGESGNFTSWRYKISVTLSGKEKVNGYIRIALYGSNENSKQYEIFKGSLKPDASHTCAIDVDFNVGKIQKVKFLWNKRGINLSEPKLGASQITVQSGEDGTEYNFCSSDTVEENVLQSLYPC
# [8] = molecular target: T4, Pancreatic lipase-related protein 2 (Homo sapiens); assay: Inhibition of recombinant HPLRP2 expressed in Pichia pastoris at 2 molar excess after 30 mins in presence of NaTDC
# [9] = molecular target: T5, Pancreatic triacylglycerol lipase (Sus scrofa) (UniProt P00591); assay: Inhibition of PPL at 400 molar excess after 30 mins in presence of NaTDC
# T5 sequence (whole entry): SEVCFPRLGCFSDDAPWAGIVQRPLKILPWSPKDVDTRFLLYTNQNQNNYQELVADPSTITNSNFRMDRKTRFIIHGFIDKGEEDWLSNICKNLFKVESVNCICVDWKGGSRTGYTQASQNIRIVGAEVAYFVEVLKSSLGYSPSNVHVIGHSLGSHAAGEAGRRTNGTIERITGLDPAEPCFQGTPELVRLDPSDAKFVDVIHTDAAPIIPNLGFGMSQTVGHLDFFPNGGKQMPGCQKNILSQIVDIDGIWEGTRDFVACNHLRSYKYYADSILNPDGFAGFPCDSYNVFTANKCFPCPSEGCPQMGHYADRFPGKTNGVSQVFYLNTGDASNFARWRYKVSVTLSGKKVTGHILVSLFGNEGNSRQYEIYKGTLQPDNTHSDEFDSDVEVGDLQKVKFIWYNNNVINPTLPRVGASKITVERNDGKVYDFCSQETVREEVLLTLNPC
# [10] = molecular target: T5, Pancreatic triacylglycerol lipase (Sus scrofa); assay: Inhibition of PPL at 100 molar excess after 30 mins in presence of NaTDC
# [11] = molecular target: T6, Pancreatic triacylglycerol lipase (Homo sapiens) (UniProt P16233); assay: Inhibition of recombinant HPL expressed in Pichia pastoris at 400 molar excess after 30 mins in presence of NaTDC
# T6 sequence (whole entry): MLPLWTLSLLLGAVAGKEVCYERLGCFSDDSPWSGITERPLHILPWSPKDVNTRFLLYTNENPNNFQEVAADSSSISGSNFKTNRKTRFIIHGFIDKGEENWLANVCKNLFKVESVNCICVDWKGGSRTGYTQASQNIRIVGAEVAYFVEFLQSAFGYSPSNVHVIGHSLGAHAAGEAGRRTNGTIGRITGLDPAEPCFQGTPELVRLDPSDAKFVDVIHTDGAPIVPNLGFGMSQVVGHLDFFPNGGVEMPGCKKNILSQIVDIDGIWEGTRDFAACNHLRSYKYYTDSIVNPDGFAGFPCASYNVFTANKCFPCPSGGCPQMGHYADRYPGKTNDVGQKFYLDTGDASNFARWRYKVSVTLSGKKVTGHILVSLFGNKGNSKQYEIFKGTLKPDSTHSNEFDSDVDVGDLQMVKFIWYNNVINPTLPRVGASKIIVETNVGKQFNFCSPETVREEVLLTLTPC
# [12] = molecular target: T1, Bile salt-activated lipase (Homo sapiens); assay: Inhibition of human pancreatic CEH assessed as half inactivation time at 4 molar excess
# [13] = molecular target: T2, Gastric triacylglycerol lipase (Canis lupus familiaris); assay: Inhibition of recombinant DGL expressed in transgenic maize assessed as half inactivation time at 20 molar excess in presence of NaTDC
# [14] = molecular target: T3, Pancreatic lipase-related protein 2 (Cavia porcellus); assay: Inhibition of recombinant GPLRP2 expressed in Aspergillus oryzae assessed as half inactivation time at 2 molar excess in presence of NaTDC
# [15] = molecular target: T4, Pancreatic lipase-related protein 2 (Homo sapiens); assay: Inhibition of recombinant HPLRP2 expressed in Pichia pastoris assessed as half inactivation time at 5 molar excess in presence of NaTDC
# [16] = molecular target: T5, Pancreatic triacylglycerol lipase (Sus scrofa); assay: Inhibition of PPL assessed as half inactivation time at 100 molar excess in presence of NaTDC
# [17] = molecular target: T6, Pancreatic triacylglycerol lipase (Homo sapiens); assay: Inhibition of recombinant HPL expressed in Pichia pastoris at 100 molar excess after 30 mins in presence of NaTDC
# [18] = molecular target: T6, Pancreatic triacylglycerol lipase (Homo sapiens); assay: Inhibition of recombinant HPL expressed in Pichia pastoris assessed as half inactivation time at 100 molar excess in presence of NaTDC
# [19] = molecular target: T2, Gastric triacylglycerol lipase (Canis lupus familiaris); assay: Inhibition of recombinant DGL expressed in transgenic maize after 30 mins in presence of NaTDC
# [20] = molecular target: T3, Pancreatic lipase-related protein 2 (Cavia porcellus); assay: Inhibition of recombinant GPLRP2 expressed in Aspergillus oryzae after 30 mins in presence of NaTDC
# [21] = molecular target: T1, Bile salt-activated lipase (Homo sapiens); assay: Inhibition of human pancreatic CEH after 30 mins
# [22] = molecular target: T4, Pancreatic lipase-related protein 2 (Homo sapiens); assay: Inhibition of recombinant HPLRP2 expressed in Pichia pastoris after 30 mins in presence of NaTDC
# [23] = molecular target: T5, Pancreatic triacylglycerol lipase (Sus scrofa); assay: Inhibition of PPL after 30 mins in presence of NaTDC
# [24] = molecular target: T6, Pancreatic triacylglycerol lipase (Homo sapiens); assay: Inhibition of recombinant HPL expressed in Pichia pastoris after 30 mins in presence of NaTDC
# [25] = molecular target: T2, Gastric triacylglycerol lipase (Canis lupus familiaris); assay: Inhibition of recombinant DGL expressed in transgenic maize assessed as hydrolysis of trybutyrin emulsion at 10 to 40 molar excess after 30 mins in absence of NaTDC
# [26] = molecular target: T1, Bile salt-activated lipase (Homo sapiens); assay: Inhibition of human pancreatic CEH assessed as residual activity at 40 molar excess after 30 mins by mass spectrophotometric analysis
# [27] = molecular target: T4, Pancreatic lipase-related protein 2 (Homo sapiens); assay: Inhibition of recombinant HPLRP2 expressed in Pichia pastoris assessed as residual activity at 40 molar excess after 30 mins by mass spectrophotometric analysis in presence of NaTDC
# [28] = molecular target: T3, Pancreatic lipase-related protein 2 (Cavia porcellus); assay: Inhibition of recombinant GPLRP2 expressed in Aspergillus oryzae assessed as residual activity at 40 molar excess after 30 mins by mass spectrophotometric analysis in presence of NaTDC
# [29] = molecular target: T2, Gastric triacylglycerol lipase (Canis lupus familiaris); assay: Inhibition of recombinant DGL expressed in transgenic maize assessed as residual activity at 40 molar excess after 30 mins by mass spectrophotometric analysis in presence of NaTDC
# [30] = molecular target: T2, Gastric triacylglycerol lipase (Canis lupus familiaris); assay: Inhibition of recombinant DGL expressed in transgenic maize assessed as hydrolysis of trybutyrin emulsion at 10 to 40 molar excess after 30 mins in presence of NaTDC
SMILES,inhibition (Sus scrofa) [%],inhibition [1] [%],inhibition [2] [%],inhibition [3] [%],inhibition [4] [%],inhibition [5] [%],inhibition [6] [%],inhibition [7] [%],inhibition [8] [%],inhibition [9] [%],inhibition [10] [%],inhibition [11],T1/2 [12] [min],T1/2 [13] [min],T1/2 [14] [min],T1/2 [15] [min],T1/2 [16] [min],inhibition [17],XI50 [21] [molar excess],XI50 [22] [molar excess],further results
COc1nn(-c2ccccc2)c(=O)o1,34.1,81.3,71.6,6.6,1.4,86,77.6,92.7,49.9,35.8,10.7,inactive,1,> 60,9.97,14.6,> 60,inactive,0.77,2.27,inhibition [18]: inactive; XI50 [19]: > 40 molar excess; XI50 [20]: 0.74 molar excess; XI50 [23]: > 400 molar excess; XI50 [24]: inactive
COc1nn(-c2cccc(Oc3ccccc3)c2)c(=O)o1,89.7,84.7,54.5,81.9,10.9,90.4,80.1,81.2,63.7,87.7,85.1,42.7%,0.9,1.88,0.46,0.78,1.69,26.3%,1.48,0.62,inhibition [25]: 65%; inhibition [26]: Active; inhibition [27]: Active; inhibition [28]: Active; inhibition [29]: Active; T1/2 [18]: > 120 min; XI50 [19]: 8.33 molar excess; XI50 [20]: 0.77 molar excess; XI50 [23]: 26.5 molar excess; XI50 [24]: > 400 molar excess; inhibition [30]: Active
COc1nn(-c2ccc(Oc3ccccc3)cc2)c(=O)o1,90.6,78.6,77.1,92.7,12.4,23.6,13.3,88.8,66,87.1,72.9,20%,1.43,9.31,> 60,2.06,1.84,inactive,0.93,1.04,inhibition [25]: 65%; T1/2 [18]: > 120 min; XI50 [19]: 7.12 molar excess; XI50 [20]: > 40 molar excess; XI50 [23]: 57.6 molar excess; XI50 [24]: > 400 molar excess; inhibition [30]: Active
CCCCCCCCCCC[C@@H](C[C@@H]1OC(=O)[C@H]1CCCCCC)OC(=O)[C@H](CC(C)C)NC=O,93.1,83.6,80.1,56.3,51.5,87.3,82.7,86.3,83.6,90.9,85.5,85%,0.52,0.59,0.4,0.55,1.66,77.2%,0.78,0.77,T1/2 [18]: 1.64 min; XI50 [23]: 2.76 molar excess; inhibition [30]: 60%
